Measured values from patent publication US10407445B2, “Hepatitis C virus inhibitors” (ENANTA PHARMACEUTICALS, INC., priority 2013, dated 2019).

Assays:
Format in all cases: cell-based
HCV GT 2a-J6 replicon = assay: HCV replicon assay, GT2a chimeric replicon expressing NS5A from GT2a strain J6; conditions: Hepatitis C virus, 72 h, read-out: EC50 2a J6
Experimental: The activity of compounds was determined against HCV replicons representing genotypes (GT) 1a, 1b, 2a, and 3a. To generate stable Huh-7.5-based cell lines, HCV replicons were engineered to express the Renilla luciferase reporter (hRluc) fused to the neomycin phosphotransferase (Neo) gene. GT2a and GT3a HCV replicons were based on the JFH-1 subgenomic replicon (Kato et al. 2003 Gastroenterology, 125:1808-1817), in which the NS5A gene was replaced with that of strains J6 and S52 (GT2a and G3a, respectively). The activity of compounds against GT1a replicons encoding NS5A mutations (M28T, Q30R, L31M, Y93C, and Y93H) was also determined in a transient replication assay. The parental GT1a and GT2a replicons (pH/SG-Neo(L+I) and pSG-Neo-JFH1, respectively) were licensed from Apath LLC (Saint Louis, Mo.). The parental GT 1b replicon (pFKi389lucubineo_3_3′_ET) was licensed from ReBLikon GmbH (Germany). HCV replicons were constructed by standard molecular biology techniques described below. All replicon constructs were verified by restriction enzyme digestion and DNA sequencing.
The plasmid pSG-hRlucNeo-JFH1 was generated from pSG-Neo-JFH1 (Kato et al. 2003, Gastroentrology 125:1808-1817). A fragment containing the JFH-1 5′ NTR—hRluc-Neo gene and two unique restriction sites (AgeI and PmeI) was synthesized (Integrated DNA Technologies, Coralville, Iowa). The resulting synthetic plasmid was digested with AgeI and PmeI and the excised fragment (5′NTR-hRluc-Neo) was ligated into pSG-Neo-JFH1 digested with the same enzymes to generate pSG-hRlucNeo-JFH1. To allow expression of heterologous NS5A sequences, an NS5A shuttle vector was generated from pSG-Neo-JFH1, in which the entire coding sequence of NS5A plus the first eight codons of NS5B were replaced with an AfeI restriction site. This was done by Infusion cloning (Clontech, Mountain View, Calif.) from two PCR products that were generated using pSG-Neo-JFH1 as a template and the following primer pairs:
Underlined sequences denote regions of overlap necessary for Infusion cloning. Purified PCR products were cloned directly into an NsiI/SnaBI digested pSG-Neo-JFH1 following the manufacturer's instructions to generate pSG-Neo-JFH1-5Ashuttle. The 2023 base pair AgeI/PmeI fragment from pSG-hRlucNeo-JFH1 was then ligated into pSG-Neo-JFH1-5Ashuttle to generate pSG-hRlucNeo-JFH1-5Ashuttle. To generate the 2a-2a-(J6) and 2a-3a-(S52) NS5A chimeric replicons, the full length NS5A sequences from GT2a strain J6 (accession AF177036) and GT3a strain S52 (accession GU814263), with the addition of the first eight codons of JFH-1 NS5B (5′-TCCATGTCATACTCCTGGACCGGG-3′), were synthesized by GeneArt (Life Technologies, Carlsbad Calif.). J6 and S52 NS5A sequences were then PCR amplified from the synthetic clones using the appropriate forward primer:
Underlined sequences denote regions of overlap with pSG-hRlucNeo-JFH1-5Ashuttle necessary for Infusion cloning. Purified PCR products were directly cloned into AfeI-digested shuttle vector by Infusion cloning following the manufacturer's instructions.
Stable HCV replicon cell lines were grown in complete media (Dulbecco's modified Eagle medium [DMEM], 2 mM L-glutamine, 0.1 mM essential amino acids, 1 mM sodium pyruvate, 10% heat inactivated fetal bovine serum) with the addition 500 μg/ml […] (G418). Huh7-lunet cells were maintained in the same medium without the addition of G418. Cells were routinely passaged at a dilution of 1:4 two times a week. The assay medium for both luciferase reporter HCV replicon and cytotoxicity assays used phenol red-free DMEM and lacked G418. For each stable replicon assay, a sixteen point half-log dilution series of compound was stamped (0.5 ul compound per well) into three replica 384-well plates, to which cells were added directly (4000 cells/well). […]

[1] = system: GT1a replicon encoding NS5A mutation M28T; assay: Transient replication assay, GT1a replicon with NS5A mutation M28T; conditions: Hepatitis C virus, read-out: EC50 1a M28T
[2] = system: GT1a replicon encoding NS5A mutation Y93H; assay: Transient replication assay, GT1a replicon with NS5A mutation Y93H; conditions: Hepatitis C virus, read-out: EC50 1a Y93H
[3] = system: GT1a replicon encoding NS5A mutation Y93C; assay: Transient replication assay, GT1a replicon with NS5A mutation Y93C; conditions: Hepatitis C virus, read-out: EC50 1a Y93C
[4] = system: GT1a replicon encoding NS5A mutation L31V; assay: Transient replication assay, GT1a replicon with NS5A mutation L31V; conditions: Hepatitis C virus, read-out: EC50 1a L31V

| SMILES | EC50 (HCV GT 2a-J6 replicon) | EC50 [1] | EC50 [2] | EC50 [3] | EC50 [4] |
| --- | --- | --- | --- | --- | --- |
| COC(=O)N[C@H](C(=O)N1C[C@]2(CCCCO2)C[C@H]1c1nc(-c2ccc(-c3ccc4c(ccc5nc([C@@H]6CCCN6C(=O)[C@@H](NC(=O)OC)C(C)C)[nH]c54)c3)cc2)c[nH]1)C(C)C [Example 2] | 27 nM | 0.1 nM | 9 nM | 0.2 nM | 0.3 nM |
| COC(=O)N[C@H](C(=O)N1C[C@]2(CCCOC2)C[C@H]1c1ncc(-c2ccc(-c3ccc4c(ccc5nc([C@@H]6CC7(CC7)CN6C(=O)[C@@H](NC(=O)OC)C(C)C)[nH]c54)c3)cc2)[nH]1)C(C)C [Compound 28] | 13 nM | 0.09 nM | 16 nM | 0.1 nM | 0.3 nM |
| COC(=O)N[C@H](C(=O)N1C[C@]2(CCCOC2)C[C@H]1c1nc2ccc3cc(-c4ccc5c(ccc6nc([C@@H]7C[C@@H]8CCCC[C@@H]8N7C(=O)[C@@H](NC(=O)OC)C(C)C)[nH]c65)c4)ccc3c2[nH]1)C(C)C [Compound 23] | 0.05 nM | 0.02 nM | 1 nM | 0.02 nM | 0.07 nM |
| COC(=O)N[C@H](C(=O)N1C[C@@]2(CCCOC2)C[C@H]1c1ncc(-c2ccc(-c3ccc4c(ccc5nc([C@@H]6CCCN6C(=O)[C@@H](NC(=O)OC)C(C)C)[nH]c54)c3)cc2)[nH]1)C(C)C [Compound 27] | 50 nM | 0.03 nM | 1 nM | 0.02 nM | 0.1 nM |
| COC(=O)N[C@H](C(=O)N1C[C@]2(CCCOC2)C[C@H]1c1ncc(-c2ccc3cc4cc(-c5cnc([C@@H]6C[C@@H]7CCCC[C@@H]7N6C(=O)[C@@H](NC(=O)OC)C(C)C)[nH]5)ccc4cc3c2)[nH]1)C(C)C [Compound 13] | 17 nM | 0.02 nM | 9 nM | 0.3 nM | 0.8 nM |
| COC(=O)N[C@H](C(=O)N1C[C@]2(CCCOC2)C[C@H]1c1nc2ccc3cc(-c4ccc5c(ccc6nc([C@@H]7C[C@H]8C[C@H]8N7C(=O)[C@@H](NC(=O)OC)C(C)C)[nH]c65)c4)ccc3c2[nH]1)C(C)C [Compound 6] | 0.07 nM | 0.06 nM | 0.8 nM | 0.02 nM | 0.2 nM |
| COC(=O)N[C@H](C(=O)N1CC2(CC2)C[C@H]1c1nc2ccc3cc(-c4ccc5c(ccc6nc([C@@H]7C[C@@]8(CCCOC8)CN7C(=O)[C@@H](NC(=O)OC)C(C)C)[nH]c65)c4)ccc3c2[nH]1)C(C)C [Compound 7] | 0.3 nM | 0.02 nM | 1 nM | 0.02 nM | 0.1 nM |
| COC(=O)N[C@H](C(=O)N1C[C@]2(CCCOC2)C[C@H]1c1nc2ccc3cc(-c4ccc5c(ccc6nc([C@@H]7C[C@@]8(CCCOC8)CN7C(=O)[C@@H](NC(=O)OC)C(C)C)[nH]c65)c4)ccc3c2[nH]1)C(C)C [Compound 31] | 0.3 nM | 0.007 nM | 0.2 nM | 0.007 nM | 0.03 nM |
| COC(=O)N[C@H](C(=O)N1[C@H](c2nc3ccc4cc(-c5ccc(-c6cnc([C@@H]7C[C@@]8(CCCOC8)CN7C(=O)[C@@H](NC(=O)OC)C7C[C@@H](C)O[C@H](C)C7)[nH]6)cc5)ccc4c3[nH]2)C[C@@H]2CCCC[C@@H]21)C(C)C (stereo in doubt) [Compound 38] | 0.09 nM | 0.002 nM | 0.2 nM | 0.004 nM | 0.002 nM |
| COC(=O)N[C@H](C(=O)N1CCC[C@H]1c1ncc(-c2ccc(-c3ccc4c(ccc5nc([C@@H]6CCCN6C(=O)[C@@H](NC(=O)OC)C(C)C)[nH]c54)c3)cc2)[nH]1)C(C)C [Example 102] | 1 nM | 1 nM | 22 nM | 0.6 nM | 8 nM |
| COC(=O)N[C@H](C(=O)N1C[C@@]2(CCOC2)C[C@H]1c1ncc(-c2ccc(-c3ccc4c(ccc5nc([C@@H]6CCCN6C(=O)[C@@H](NC(=O)OC)C(C)C)[nH]c54)c3)cc2)[nH]1)C(C)C [Compound 50] | 13 nM | 0.5 nM | 7 nM | 0.4 nM | 1 nM |
| COC(=O)N[C@H](C(=O)N1CCC[C@H]1c1nc2ccc(C#Cc3ccc4c(ccc5nc([C@@H]6CCCN6C(=O)[C@@H](NC(=O)OC)C(C)C)[nH]c54)c3)cc2[nH]1)C(C)C [Example 103] | 16 nM | 6 nM | 112 nM | 2 nM | 29 nM |
| COC(=O)N[C@H](C(=O)N1C[C@]2(CCCOC2)C[C@H]1c1ncc(-c2ccc(-c3ccc(-c4cnc([C@@H]5C[C@@H]6CCC[C@@H]6N5C(=O)[C@@H](NC(=O)OC)C(C)C)[nH]4)cc3)cc2)[nH]1)C(C)C [Compound 37] | 0.7 nM | 0.03 nM | 15 nM | 1 nM | 0.5 nM |
| COC(=O)N[C@H](C(=O)N1C[C@]2(CCCOC2)C[C@H]1c1ncc(-c2ccc(-c3ccc4c(ccc5nc([C@@H]6CCCN6C(=O)[C@@H](NC(=O)OC)C(C)C)[nH]c54)c3)cc2)[nH]1)C(C)C [Compound 47] | 0.6 nM | 0.2 nM | 8 nM | 0.3 nM | 1 nM |
| COC(=O)N[C@H](C(=O)N1CCC[C@H]1c1ncc(-c2ccc(-c3ccc4c(ccc5nc([C@@H]6C[C@@]7(CCCOC7)CN6C(=O)[C@@H](NC(=O)OC)C(C)C)[nH]c54)c3)cc2)[nH]1)C(C)C [Compound 44] | 1 nM | 0.06 nM | 6 nM | 0.2 nM | 0.6 nM |
| COC(=O)N[C@H](C(=O)N1C[C@]2(CCCOC2)C[C@H]1c1ncc(-c2ccc(-c3ccc4c(ccc5nc([C@@H]6C[C@@H]7CCC[C@@H]7N6C(=O)[C@@H](NC(=O)OC)C(C)C)[nH]c54)c3)cc2)[nH]1)C(C)C [Compound 16] | 0.8 nM | 0.08 nM | 8 nM | 0.3 nM | 0.3 nM |
| COC(=O)N[C@H](C(=O)N1C[C@]2(CCCOC2)C[C@H]1c1nc2ccc3cc(-c4ccc(-c5cnc([C@@H]6C[C@@H]7CCCC[C@@H]7N6C(=O)[C@@H](NC(=O)OC)C(C)C)[nH]5)cc4)ccc3c2[nH]1)C(C)C [Compound 24] | 0.3 nM | 0.02 nM | 3 nM | 0.09 nM | 0.07 nM |
| COC(=O)N[C@H](C(=O)N1C[C@]2(CCCOC2)C[C@H]1c1ncc(-c2ccc3c(c2)COc2cc(-c4cnc([C@@H]5C[C@@H]6CCCC[C@@H]6N5C(=O)[C@@H](NC(=O)OC)C(C)C)[nH]4)ccc2-3)[nH]1)C(C)C [Compound 15] | 1 nM | 0.01 nM | 5 nM | 0.2 nM | 0.1 nM |
| COC(=O)N[C@H](C(=O)N1C[C@]2(CCCOC2)C[C@H]1c1nc2ccc3cc(-c4ccc(-c5cnc([C@@H]6C[C@H]7C[C@H]7N6C(=O)[C@@H](NC(=O)OC)C(C)C)[nH]5)cc4)ccc3c2[nH]1)C(C)C [Compound 5] | 3 nM | 0.03 nM | 2 nM | 0.06 nM | 0.1 nM |
